“And” between values parts separate entries of the source, which are not always exact repeats. Equal values may be shown once. “Also recorded” adds a separate entry of the source.
Key:
[1] = test system: human cord blood CD34+ cells; assay: Bone marrow stem cell (hematopoietic trilineage) colony formation assay; format: cell-based
Protocol: Human hematopoietic stem cell trilineage colony formation assays were performed as previously described by us. Briefly, human cord blood CD34+ cells (catalog #: 70008.5) were purchased from StemCell Technology Inc. and seeded at 1 × 10^4 cells per 35 mm dish. Cells were cultured in MethoCult™ Express (StemCell Technologies, Inc. (Vancouver, BC, Canada)) semisolid media, per the manufacturer’s instructions, in the presence of compound or vehicle (for controls). Compounds were added at final concentrations matching those used in the initial growth assay screens. At eight days, colonies (i.e., groups of ≥10 cells) were counted. At fourteen days, individual colonies of erythroid burst-forming units (BFU-E), colony-forming unit granulocyte–macrophage (CFU-GM), and colony-forming unit granulocyte, erythrocyte, monocyte, and megakaryocyte (CFU-GEMM) were identified based on the manufacturers’ morphologic characterization criteria. Assays were run in replicates of N = 2, and some were run in replicates of N = 4, as denoted. The mean number of colonies was then determined and expressed as the percentage of controls. The effect of each compound on inhibiting the growth of cancer cells relative to its toxic effects on normal bone marrow was evaluated. This was carried out by comparing colonies at 8 days for each cancer cell line to that of bone marrow. This information was used to calculate the efficacy ratio, as follows: efficacy ratio = (percent of remaining cancer cell colonies)/(percent of remaining bone marrow colonies). This was performed for all compounds at 40 µM and for selected compounds at 5.7 µM, as denoted. For compounds nominated for second-level screens, bone marrow colony formation assays were also repeated. Compounds were added at final concentrations matching those used in the initial screens.
In parallel with measuring growth inhibition of cancer cell growth, we measured the effect on human hematopoietic stem cells. Hematopoietic stem cells reside in the bone marrow and are the source of mature cells present in blood. Bone marrow is one of the most sensitive organs in the body to drug toxicity, and this is especially so for anticancer drugs, where bone marrow toxicity can approach 100% [78, 79, 80]. Bone marrow toxicity was measured by performing hematopoietic colony formation assays on human CD34+ stem cells. The stem cell nature of this assay permitted the assessment of trilineage colony formation: granulocytic (white blood cells), erythrocytic (red blood cells), and megakaryocytic (platelets), measured by the formation of CFU-GM, BFU-E, and CFU-GEMM colonies, respectively. Two measurements were taken. First, total colonies at eight days were measured, thereby matching the eight-day timeframe of cancer cell colony formation assays. Second, at fourteen days, individual colonies had differentiated, permitting quantification of each lineage.

M14 = assay: Eight-day colony formation assay, melanoma M14; format: cell-based, human
Protocol: In addition to screens, eight-day colony formation assays were conducted for certain experiments, as denoted. When measuring the effect of 5-fluorouracil (5FU) on HT29 colon cancer cells, the following final 5FU concentrations were examined: 0 (DMSO only), 0.0012, 0.012, 0.12, 0.82, 5.7, 20, and 40 µM. When measuring the effect of Dxr2-017 on melanoma cell growth, the following concentrations were examined: 0 (DMSO only), 0.001, 0.01, 0.1, 1.0, and 10.0 µM. Melanoma studies were performed on M14 and SK-MEL-5 human melanoma cell lines. For each Dxr2-017 concentration for each cell line, there were N = 3 replicates, and experiments were performed a total of 3 separate times (each with N = 3 replicates). The IC50 values were calculated using nonlinear regression analysis. Data from individual experiments were log-transformed and fitted to a dose–response curve using the four-parameter logistic model of GraphPad Prism 10 software. The IC50 values were determined using the dose–response inhibition function. IC50 values from each of three different experiments were used to calculate mean ± SEM.

cleaved caspase 3 = assay: Western blot for cleaved caspase 3, M14; format: cell-based, human; details: up to 10 µM, three days
Protocol: (§1) After treatment of M14 and SK-MEL-5 cells with different concentrations of Dxr2-017 or vehicle for 3 or 8 days, as denoted, cell images were captured at 20X in a transmitted light channel using the EVOS™ M5000 Imaging System (Invitrogen (Waltham, MA, USA)). Western blots were performed as previously described by us. Briefly, cells were collected and lysed using RIPA lysis buffer (25 mM Tris-HCl pH 7.6, 150 mM NaCl, 1% NP-40, 1% sodium deoxycholate, and 0.1% SDS; Thermo Scientific^TM (Waltham, MA, USA), #89900), supplemented with protease and phosphatase inhibitor cocktail (Thermo Scientific^TM, #78442) and 1 mM of PMSF. Resultant Western blots were probed using antibodies against cleaved caspase 3 (Cell Signaling Technology (Danvers, MA, USA), #9664), pan-cadherin (Cell Signaling Technology, #4068), and β-actin (Santa Cruz (Santa Cruz, CA, USA), #sc-47778).
We then assessed whether Dxr2-017 induced apoptosis. We treated M14 and SK-MEL-5 cells with Dxr2-017 for three days at concentrations of up 10 and 20 µM, respectively, and measured cleaved caspase 3 using Western blot. […] In this assay, cells were grown in six-well plates and washed prior to lysis, and thus only adherent cells remained. […] Adherent cells are spread out and fusiform shaped, while detached/floating cells are round, as previously reported by us. […]

pan-cadherin = assay: Western blot for pan-cadherin, SK-MEL-5; format: cell-based, human
Protocol: as §1
These findings led us to compare cleaved caspase 3 between adherent cells and floating cells. Cleaved caspase 3 is an indicator of programmed cell death, and its triggering by loss of cell attachment is an established means of detecting anoikis. Adherent cells were prepared as above. […]

c1ccc2sc(-c3ccc(CNc4ccc5nnnn5n4)o3)nc2c1 [Dxr2-017]
inhibition of normal bone marrow eight-day colony formation ([1]; 40 µM, 8 days): 30.2 ± 0.7% and 30% | decrease of BFU-E compared to the control ([1]; 40 µM, 14 days): 97.1 ± 4.1% | decrease of CFU-GM compared to the control ([1]; 40 µM, 14 days): 49.8 ± 0.0% | increase of CFU-GEMM compared to the control ([1]; 40 µM, 14 days): 16.1 ± 12.0% | inhibition of normal bone marrow fourteen-day total colony formation ([1]; 40 µM, 14 days): 42.6 ± 5.8% | Mean Number of Colonies, % of Control, 14 days ([1]; normal bone marrow, compound at 40 µM, 14 days, N = 2): 57 % of Control | Mean Number of Colonies, % of Control, 8 days ([1]; normal bone marrow, compound at 40 µM, total colonies at 8 days, N = 2): 70 % of Control | IC50 (M14; Homo sapiens, 192 h, M14 melanoma, mean ± SEM of three experiments): 12 nM | fold efficacy relative to bone marrow stem cells treated at 40 µM (M14; M14 IC50 versus eight-day bone marrow treatment at 40 µM): over 2100 fold | cleaved caspase 3, adherent and floating cells combined (cleaved caspase 3): clear formation was observed | cleaved caspase 3, adherent cells only (cleaved caspase 3): did not see any induction of cleaved caspase 3; also recorded: no formation of cleaved caspase 3 | cadherin expression (pan-cadherin): decreased cadherin expression in a concentration-dependent manner

Source: article PMC11429909, “Protein Structure Inspired Discovery of a Novel Inducer of Anoikis in Human Melanoma” (Cancers, 2024)
